Tests used:
[1] = system: rats trained on a conditioned avoidance procedure; settings: 2.0 mg./kg. intraperitoneally, 3 hr. session; cited from earlier work
[2] = Dose without significant effect on water or total fluid intake; settings: mouse, in vivo, ip; intraperitoneal injection at 12 hourly intervals, read from dose graph; read-out: Dose which has no significant effect on water or total fluid intake
Source text: The dose of the choline acetylase inhibitor when administered according to the present invention is selected to cause effective aversion to alcohol consumption. Effective aversion is intended to mean either the complete lack of compulsion to consume alcohol or at least a reduction of the compulsion to a point where the subject may consume alcohol in a strictly elective manner without being dependent thereon. The dose is also selected to be substantially free of undesirable side effects. By this is meant that the side effects are at most of a trivial nature and unimportant relative to the benefit derived from the treatment. One effect of excessive dosage with a choline acetylase inhibitor is a reduction in water consumption. […]
The dose of trans-4-[2-(1-naphthyl)vinyl]pyridine hydrochloride which has no significant effect on water or total fluid intake of these animals was determined to be 2 mg./kg. This was determined by intraperitoneal injection of trans-4-[2-(1-naphthyl)vinyl]pyridine hydrochloride at 12 hourly intervals during the test period at various dosage concentrations for various groups of mice. […]

C57B1/6J mice = experiment: Ethanol aversion in C57B1/6J mice, free choice of water and 5% ethanol; type: in vivo, mouse; settings: for 5% alcohol daily consumption: 2 mg./kg. i.p. at 12 hourly intervals; for 5% alcohol daily consumption / Water daily consumption: N = 8
Method: Adult male C57B1/6J mice weighing 20-25 g. were then placed into individual cages equipped with two small drinking tubes, one filled with water and the other with 5% ethanol in water. Food, water and alcohol solution were available ad libitum and the daily consumption of each was recorded at 10 a.m. The positions of the tubes were interchanged daily and different tubes were ocassionally substituted. After a period of 4 days to establish a reference base for alcohol and water consumption respectively, the animals were treated by intraperitoneal injection with 2 mg./kg. of body weight of trans-4-[2-(1-naphthyl)vinyl]-pyridine hydrochloride at 12 hourly intervals on the 5th and 6th days. Drug treatment was terminated on the 6th day and the animals were kept for an additional two days. The average values of water, 5% alcohol, and total fluid intake for each of these 8 days of the experiment are shown in the following table.

[3] = day 5, 2 mg./kg. i.p. at 12 hourly intervals
[4] = day 6, 2 mg./kg. i.p. at 12 hourly intervals

Row | SMILES | Increase in the response rate [1] [%] | NOAEL [2] [mg/kg] | Alcohol consumption as share of the daily fluid intake on the days of drug treatment (C57B1/6J mice; 5th and 6th days, 2 mg./kg. i.p., about 65% without drug) | Total daily fluid intake during the experimental period (C57B1/6J mice; 8-day experiment, drug on days 5 and 6) | 5% alcohol daily consumption (C57B1/6J mice; day 5 (first treatment day)) [mL/kg] | 5% alcohol as % of total daily fluid intake (C57B1/6J mice; [3]) [%] | Total daily fluid consumption (C57B1/6J mice; [3]) [mL/kg] | Water daily consumption (C57B1/6J mice; [3]) [mL/kg] | 5% alcohol daily consumption (C57B1/6J mice; day 6 (second treatment day)) [mL/kg] | 5% alcohol as % of total daily fluid intake (C57B1/6J mice; [4]) [%] | Total daily fluid consumption (C57B1/6J mice; [4]) [mL/kg] | Water daily consumption (C57B1/6J mice; [4]) [mL/kg] | Water and alcohol intakes on cessation of drug treatment (C57B1/6J mice; days 7 and 8, after drug treatment ended)
1 | CC(N)Cc1ccccc1 (stereo not shown) [amphetamine] | ~75 | – | – | – | – | – | – | – | – | – | – | – | –
2 | C(=C\c1cccc2ccccc12)/c1ccncc1.Cl [N V P, trans-4-[2-(1-naphthyl)vinyl]pyridine hydrochloride] | – | 2 | about 42% | remained substantially constant | 60 ± 2 | 34 | 177 | 117 ± 4 | 82 ± 3 | 43 | 193 | 111 ± 4 | returned substantially to their pretreatment values

From patent US4006240A, “Alcohol aversion process by enzyme inhibition” (priority 1975, dated 1977)
